Results on 21 compounds are retold here after US8741897B2, “Glucocorticoid mimetics, methods of making them, pharmaceutical compositions and uses thereof” (Boehringer Ingelheim Pharmaceuticals Inc., priority 2003, dated 2014).

For experiment [1], the target named is T1, human glucocorticoid receptor (GR) complex (Homo sapiens, UniProt P04150).
T1 construct: made in house; host or cells: insect expression system (baculovirus lysate)
T1 sequence (P04150 1-777): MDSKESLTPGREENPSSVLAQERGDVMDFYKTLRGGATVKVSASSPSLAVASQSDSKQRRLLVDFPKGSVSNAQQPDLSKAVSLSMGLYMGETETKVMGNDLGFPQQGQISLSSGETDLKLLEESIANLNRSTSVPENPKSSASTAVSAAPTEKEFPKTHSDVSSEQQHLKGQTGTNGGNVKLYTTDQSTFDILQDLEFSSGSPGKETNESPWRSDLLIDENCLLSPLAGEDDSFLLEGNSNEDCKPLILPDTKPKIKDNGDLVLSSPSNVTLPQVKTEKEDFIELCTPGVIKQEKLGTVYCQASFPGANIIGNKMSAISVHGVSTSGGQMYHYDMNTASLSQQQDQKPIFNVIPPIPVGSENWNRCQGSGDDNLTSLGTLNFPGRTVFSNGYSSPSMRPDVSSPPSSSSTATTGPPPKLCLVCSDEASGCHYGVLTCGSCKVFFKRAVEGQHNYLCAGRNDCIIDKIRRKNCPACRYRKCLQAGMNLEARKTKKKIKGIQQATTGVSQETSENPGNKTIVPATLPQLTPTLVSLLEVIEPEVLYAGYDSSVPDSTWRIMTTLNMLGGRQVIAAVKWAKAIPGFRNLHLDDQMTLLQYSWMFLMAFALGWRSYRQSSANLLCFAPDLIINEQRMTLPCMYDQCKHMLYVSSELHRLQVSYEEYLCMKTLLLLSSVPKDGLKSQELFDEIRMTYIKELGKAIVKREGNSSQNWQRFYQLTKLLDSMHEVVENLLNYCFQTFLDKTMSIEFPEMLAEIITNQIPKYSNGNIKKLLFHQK
Briefly: Glucocorticoid receptor competitive binding assay (fluorescence polarization, TAMRA-labeled dexamethasone probe). The note with it: compounds of Formula (IA). Summed up: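 Fluorescence-polarization competition against 15 nM TAMRA-dexamethasone (stock added to the mix) for human GR complex from baculovirus lysate diluted 1:170. Buffer: 10 mM TES, 50 mM KCl, 20 mM Na2MoO4, 1.5 mM EDTA, 0.04% CHAPS, 10% glycerol, 1 mM DTT, pH 7.4. IC50 from 4-parameter logistic fit.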
(Polarisation of emitted light reports the rotation of a fluorescent probe.)

The subject of experiment [2] is glucocorticoid receptor function. Briefly: one or more of the above assays (GR binding and glucocorticoid receptor cell assays: aromatase, IL-6, TAT, MMTV-Luc, IL-8, ICAM-Luc). The note with it: assay not specified per compound. Format: cell-based.

The structures appear in SMILES notation.

Consider `CC(C)c1ccc(O)c(C(C)(C)CC(O)(Cc2[nH]c3ccccc3c2C#N)C(F)(F)F)c1` (stereo not drawn) [2-[2-Hydroxy-4-(2-hydroxy-5-isopropylphenyl)-4-methyl-2-trifluoromethylpentyl]-1H-indole-3-carbonitrile], for which the “activity in the GR binding assay” value in experiment [1] is listed as “potent activity”. The “activity as agonists of the glucocorticoid receptor function in one or more of the above assays” value (from here on “activity as agonists”) in experiment [2] is listed as “potent agonists”.

`Cc1ccc(O)c(C(C)(C)CC(O)(Cc2cc3c(C)cc(C#N)cc3[nH]2)C(F)(F)F)c1` (stereo not drawn) [2-[2-Hydroxy-4-(2-hydroxy-5-methylphenyl)-4-methyl-2-trifluoromethylpentyl]-4-methyl-1H-indole-6-carbonitrile]: in experiment [1], the “activity in the GR binding assay” value is on record as “potent activity”. Moreover, the “activity as agonists” value in experiment [2] is given as “potent agonists”.

For `Cc1cc(C)c(C(C)(C)CC(O)(Cc2[nH]c3ccccc3c2C#N)C(F)(F)F)cc1O` (stereo not drawn) [2-[2-Hydroxy-4-(5-hydroxy-2,4-dimethylphenyl)-4-methyl-2-trifluoromethylpentyl]-1H-indole-3-carbonitrile], the “activity in the GR binding assay” value in experiment [1] is “potent activity”. Further, the “activity as agonists” value in experiment [2] is given as “potent agonists”.

Take `COc1ccc(C(C)C)cc1C(C)(C)CC(O)(Cc1[nH]c2ccccc2c1C#N)C(F)(F)F` (stereo not drawn) [2-[2-Hydroxy-4-(5-isopropyl-2-methoxyphenyl)-4-methyl-2-trifluoromethylpentyl]-1H-indole-3-carbonitrile]: in experiment [1], the “activity in the GR binding assay” value is “potent activity”. Also, the “activity as agonists” value in experiment [2] is listed as “potent agonists”.

For the compound `COc1ccc(S(C)(=O)=O)cc1C(C)(C)CC(O)(Cc1[nH]c2ccccc2c1C#N)C(F)(F)F` (stereo not drawn) [2-[2-Hydroxy-4-(5-methanesulfonyl-2-methoxyphenyl)-4-methyl-2-trifluoromethylpentyl]-1H-indole-3-carbonitrile], the “activity in the GR binding assay” value in experiment [1] is listed as “potent activity”. Besides, the “activity as agonists” value in experiment [2] is given as “potent agonists”.

For the compound `CSc1cc2c(c(C(C)(C)CC(O)(Cc3[nH]c4ccccc4c3C#N)C(F)(F)F)c1)OCC2` (stereo not drawn) [2-[2-Hydroxy-4-methyl-4-(5-methylsulfanyl-2,3-dihydrobenzofuran-7-yl)-2-trifluoromethylpentyl]-1H-indole-3-carbonitrile], the “activity in the GR binding assay” value in experiment [1] is listed as “potent activity”. Also, the “activity as agonists” value in experiment [2] is listed as “potent agonists”.

Turning to `CC(C)(CC(O)(Cc1cc(Cl)nc2ccc(Cl)cc12)C(F)(F)F)c1cc(F)ccc1O` (stereo not drawn) [2-[3-(2,6-Dichloroquinolin-4-ylmethyl)-4,4,4-trifluoro-3-hydroxy-1,1-dimethylbutyl]-4-fluorophenol], in experiment [1], the “activity in the GR binding assay” value is “potent activity”. Besides, the “activity as agonists” value in experiment [2] is reported as “potent agonists”.

Consider `Cc1cc(CC(O)(CC(C)(C)c2ccc(F)cc2O)C(F)(F)F)cc(C)n1` (stereo not drawn) [2-[3-(2,6-Dimethylpyridin-4-ylmethyl)-4,4,4-trifluoro-3-hydroxy-1,1-dimethylbutyl]-5-fluorophenol], for which the “activity in the GR binding assay” value in experiment [1] was “potent activity”. In experiment [2], the “activity as agonists” value is listed as “potent agonists”.

With `CC(C)(CC(O)(Cc1ccnc(Br)c1)C(F)(F)F)c1cc(F)ccc1O` (stereo not drawn) [2-[3-(2-Bromopyridin-4-ylmethyl)-4,4,4-trifluoro-3-hydroxy-1,1-dimethylbutyl]-4-fluorophenol], the “activity in the GR binding assay” value in experiment [1] was “potent activity”. For the same compound, the “activity as agonists” value in experiment [2] is recorded as “potent agonists”.

`Cc1cc(C#N)cc2[nH]c(CC(O)(CC(C)(C)c3cccc4c3OCC4)C(F)(F)F)cc12` (stereo not drawn) [2-[4-(2,3-Dihydrobenzofuran-7-yl)-2-hydroxy-4-methyl-2-trifluoromethylpentyl]-4-methyl-1H-indole-6-carbonitrile]: the “activity in the GR binding assay” value in experiment [1] is “potent activity”. Besides, the “activity as agonists” value in experiment [2] is “potent agonists”.

On to `CN(C)Cc1cccc(C(C)(C)CC(O)(Cc2cc3cc(C#N)ccc3[nH]2)C(F)(F)F)c1` (stereo not drawn) [2-[4-(3-Dimethylaminomethylphenyl)-2-hydroxy-4-methyl-2-trifluoromethylpentyl]-1H-indole-5-carbonitrile], for which the “activity in the GR binding assay” value in experiment [1] is “potent activity”. The “activity as agonists” value in experiment [2] was “potent agonists”.

`CC(C)(CC(O)(Cc1cc2cc(C#N)ccc2[nH]1)C(F)(F)F)c1cccc(C2OCCO2)c1` (stereo not drawn) [2-[4-(3-[1,3]Dioxolan-2-ylphenyl)-2-hydroxy-4-methyl-2-trifluoromethylpentyl]-1H-indole-5-carbonitrile]: in experiment [1], the “activity in the GR binding assay” value was “potent activity”. Also, the “activity as agonists” value in experiment [2] is given as “potent agonists”.

As to `Cc1cc(C#N)cc2[nH]c(CC(O)(CC(C)(C)c3ccc(F)cc3O)C(F)(F)F)cc12` (stereo not drawn) [2-[4-(4-Fluoro-2-hydroxyphenyl)-2-hydroxy-4-methyl-2-trifluoromethylpentyl]-4-methyl-1H-indole-6-carbonitrile], the “activity in the GR binding assay” value in experiment [1] is “potent activity”. Moreover, in experiment [2], the “activity as agonists” value is reported as “potent agonists”.

On to `CN(C)C(=O)c1ccc2[nH]c(CC(O)(CC(C)(C)c3cc(Br)cc4c3OCC4)C(F)(F)F)cc2c1` (stereo not drawn) [2-[4-(5-Bromo-2,3-dihydrobenzofuran-7-yl)-2-hydroxy-4-methyl-2-trifluoromethylpentyl]-1H-indole-5-carboxylic acid dimethylamide], for which, in experiment [1], the “activity in the GR binding assay” value is recorded as “potent activity”. The “activity as agonists” value in experiment [2] is on record as “potent agonists”.

Regarding `Cc1cc(C#N)cc2[nH]c(CC(O)(CC(C)(C)c3cc(Br)cc4c3OCC4)C(F)(F)F)cc12` (stereo not drawn) [2-[4-(5-Bromo-2,3-dihydrobenzofuran-7-yl)-2-hydroxy-4-methyl-2-trifluoromethylpentyl]-4-methyl-1H-indole-6-carbonitrile], the “activity in the GR binding assay” value in experiment [1] was “potent activity”. Further, the “activity as agonists” value in experiment [2] is “potent agonists”.

Regarding `CC(C)(CC(O)(Cc1cc2nc(C#N)ccc2[nH]1)C(F)(F)F)c1cc(Cl)cc2c1OCC2` (stereo not drawn) [2-[4-(5-Chloro-2,3-dihydrobenzofuran-7-yl)-2-hydroxy-4-methyl-2-trifluoromethylpentyl]-1H-pyrrolo[3,2-b]pyridine-5-carbonitrile], the “activity in the GR binding assay” value in experiment [1] is “potent activity”. Besides, the “activity as agonists” value in experiment [2] is given as “potent agonists”.

Regarding `CC(C)(CC(O)(Cc1cc2ccc(C#N)cc2[nH]1)C(F)(F)F)c1cc(F)ccc1O` (stereo not drawn) [2-[4-(5-Fluoro-2-hydroxyphenyl)-2-hydroxy-4-methyl-2-trifluoromethylpentyl]-1H-indole-6-carbonitrile], the “activity in the GR binding assay” value in experiment [1] is “potent activity”. In experiment [2], the “activity as agonists” value was “potent agonists”.

On to `COc1ccc(F)cc1C(C)(C)CC(O)(Cc1cc2cc(C(N)=O)ccc2[nH]1)C(F)(F)F` (stereo not drawn) [2-[4-(5-Fluoro-2-methoxyphenyl)-2-hydroxy-4-methyl-2-trifluoromethylpentyl]-1H-indole-5-carboxylic acid amide], for which the “activity in the GR binding assay” value in experiment [1] is reported as “potent activity”. For the same compound, the “activity as agonists” value in experiment [2] is reported as “potent agonists”.

`COc1ccc(F)cc1C(C)(C)CC(O)(Cc1cc2cc(C(=O)NCC(N)=O)ccc2[nH]1)C(F)(F)F` (stereo not drawn) [2-[4-(5-Fluoro-2-methoxyphenyl)-2-hydroxy-4-methyl-2-trifluoromethylpentyl]-1H-indole-5-carboxylic acid carbamoylmethylamide]: in experiment [1], the “activity in the GR binding assay” value was “potent activity”. Moreover, the “activity as agonists” value in experiment [2] is recorded as “potent agonists”.

As to `COc1ccc(F)cc1C(C)(C)CC(O)(Cc1cc2cc(C(=O)NCC#N)ccc2[nH]1)C(F)(F)F` (stereo not drawn) [2-[4-(5-Fluoro-2-methoxyphenyl)-2-hydroxy-4-methyl-2-trifluoromethylpentyl]-1H-indole-5-carboxylic acid cyanomethylamide], in experiment [1], the “activity in the GR binding assay” value was “potent activity”. Besides, in experiment [2], the “activity as agonists” value is recorded as “potent agonists”.

With `COc1ccc(F)cc1C(C)(C)CC(O)(Cc1cc2ccc(C#N)cc2[nH]1)C(F)(F)F` (stereo not drawn) [2-[4-(5-Fluoro-2-methoxyphenyl)-2-hydroxy-4-methyl-2-trifluoromethylpentyl]-1H-indole-6-carbonitrile], the “activity in the GR binding assay” value in experiment [1] was “potent activity”. Besides, in experiment [2], the “activity as agonists” value was “potent agonists”.
